Earlier results on one substance are cited in patent publication US20070191304A1, “Methods for performing percutaneous coronary intervention” (priority 2005, published 2007).

For the series the following is noted: bivalirudin plus GP IIb/IIIa inhibitors.

Regarding bivalirudin, the “Primary endpoint of death, myocardial infarction, urgent revascularization and major bleeding, compared to UFH plus planned GP IIb/IIIa inhibitors” value was “noninferior”.
